# Assay results reported in patent publication US20220348569A1 (priority 2021, published 2022).
# Entries after “also recorded” stand apart in the source; their conditions may differ. Where two headings read alike, the source gives them in different places.
# Tests used:
# SARS-CoV pseudovirus [1] = test: microbe, parasite or virus in culture; format: cell-based; details: Severe acute respiratory syndrome coronavirus, 293T/ACE2
# SARS-CoV pseudovirus [2] = test: microbe, parasite or virus in culture; format: cell-based; details: Severe acute respiratory syndrome coronavirus, HT-1080
# SARS-CoV pseudovirus [3] = test: microbe, parasite or virus in culture; format: cell-based; details: Severe acute respiratory syndrome coronavirus, A549-ACE2
# MERS-CoV pseudovirus [4] = test: microbe, parasite or virus in culture; format: cell-based; details: Middle East respiratory syndrome-related coronavirus, Huh-7
# MERS-CoV pseudovirus [5] = test: microbe, parasite or virus in culture; format: cell-based; details: Middle East respiratory syndrome-related coronavirus, MRC5
# [6] = system: SARS-CoV-2 (US_WA-1/2020); format: cell-based
# [7] = system: SARS-CoV-2 full Spike wild-type (Wuhan-Hu-1) mediated cell-to-cell fusion; test: cells; format: cell-based; details: for inhibition at 0.25 µM: Severe acute respiratory syndrome coronavirus 2, Jurkat, at 250 nM, read-out: inhibitory activity of SARS-CoV-2 mediated cell-to-cell fusion
# [8] = biological target: SARS-CoV-2 spike (active trimer) His-tag (Severe acute respiratory syndrome coronavirus 2, UniProt P0DTC2); format: binding
# SARS-CoV-2 pseudovirus [9] = test: microbe, parasite or virus in culture; format: cell-based; details: for IC50: Severe acute respiratory syndrome-related coronavirus, read-out: IC50s against SARS-CoV-2 pseudovirus over the cell lines
# [10] = rat, in vivo
# in vivo = details: female, rat; for AUC(0-t): Sprague Dawley
# in vitro [11] = details: human
# SARS-CoV-2 pseudovirus [12] = test: microbe, parasite or virus in culture; format: cell-based; details: Severe acute respiratory syndrome-related coronavirus, A549-ACE2
# SARS-CoV pseudovirus [13] = format: cell-based
# MERS-CoV pseudovirus [14] = test: microbe, parasite or virus in culture; format: cell-based; details: Middle East respiratory syndrome-related coronavirus, read-out: IC50 against MERS-CoV pseudovirus
# in vitro [15] = details: human; remark: listed apart in the source
# in vitro [16] = details: human; remark: listed apart in the source
# in vitro [17] = details: human, Caco-2, pH 7.4
# [18] = both, human, microsomes
# in vitro [19] = details: both, human, plasma
# [20] = female, Sprague Dawley, iv, 5 mg/kg
smiles,measurement,setting,value
O=C(O)c1cccc(-c2ccc(/C=C3\SC(=S)N(CCc4ccccc4)C3=O)o2)c1 [Compound 2],IC50,SARS-CoV pseudovirus [1],13.8 to 17 nM
same,IC50,SARS-CoV pseudovirus [2],19.3 to 39 nM
same,IC50,SARS-CoV pseudovirus [3],98 to 157 nM
same,IC50,MERS-CoV pseudovirus [4],95 to 158 nM
same,IC50,MERS-CoV pseudovirus [5],76.5 to 123 nM
same,IC100,[6],1.25 µM
same,inhibition of SARS-CoV-2 mediated cell-to-cell fusion (in words),[7],potently inhibited the cell-to-cell fusion even at the lowest dose
same,inhibition at 0.25 µM,[7],62 to 79%
same,ka,[8],872 M⁻¹ s⁻¹
same,antiviral activity against SARS-CoV-2 pseudovirus (in words),SARS-CoV-2 pseudovirus [9],low nanomolar activity; also recorded: best antiviral potency; also recorded: low nM IC50
same,IC50,SARS-CoV-2 pseudovirus [9],22.8 to 58 nM
same,C0,[10]; [20],1710.87 ng/mL
same,CLobs,[10]; [20],0.00027 mg/kg/(ng/mL)/hr
same,MRT0-inf_obs,[10]; [20],5.09 h
same,Vss_obs,[10]; [20],0.0014 mg/kg/(ng/mL)
same,Vss_obs,"[10]; female, Sprague Dawley, po, 10 mg/kg",0 mg/kg/(ng/mL)
same,F %,"[10]; female, Sprague-Dawley",0.9%
same,MRT0-inf_obs,"[10]; female, Sprague-Dawley, po, 10 mg/kg",7.28 h
same,Vz/F_obs,"[10]; po, 10 mg/kg",0.1759 mg/kg/(ng/mL)
same,AUC(0-t),"in vivo; iv, 5 mg/kg",17100 ng·h/mL
same,AUC(0-t),"in vivo; po, 10 mg/kg",319 ng·h/mL
same,half-life,"in vivo; Sprague-Dawley, iv, 5 mg/kg",3.5 to 3.9 h
O=C(O)c1cc(-c2ccc(/C=C3\SC(=S)N(CCc4ccccc4)C3=O)o2)ccc1F [Compound 3],IC50,SARS-CoV pseudovirus [1],13.8 to 17 nM
same,IC50,SARS-CoV pseudovirus [2],19.3 to 39 nM
same,IC50,SARS-CoV pseudovirus [3],98 to 157 nM
same,IC50,MERS-CoV pseudovirus [4],95 to 158 nM
same,IC50,MERS-CoV pseudovirus [5],76.5 to 123 nM
same,IC100,[6],2.5 µM
same,antiviral activity against SARS-CoV-2 pseudovirus (in words),SARS-CoV-2 pseudovirus [9],somewhat reduced activity
same,"selectivity index (SI, ratio CC50/IC50) over the cell lines",SARS-CoV-2 pseudovirus [9],750->1563
same,IC50,SARS-CoV-2 pseudovirus [9],60.1 to 120 nM
same,CC50,in vitro [11],45000 ± 5000 nM
Cc1ccc(-c2ccc(/C=C3\SC(=S)N(CCc4ccccc4)C3=O)o2)cc1C(=O)O [Compound 4],IC50,MERS-CoV pseudovirus [4],95 to 158 nM
same,IC50,MERS-CoV pseudovirus [5],76.5 to 123 nM
same,IC100,[6],2.5 µM
same,inhibition of SARS-CoV-2 mediated cell-to-cell fusion (in words),[7],potently inhibited the cell-to-cell fusion even at the lowest dose
same,inhibition at 0.25 µM,[7],62 to 79%
same,antiviral activity against SARS-CoV-2 pseudovirus (in words),SARS-CoV-2 pseudovirus [9],low nanomolar activity; also recorded: excellent antiviral activity
same,IC50,SARS-CoV-2 pseudovirus [9],26 to 73 nM
Cc1c(C(=O)O)cccc1-c1ccc(/C=C2\SC(=S)N(CCc3ccccc3)C2=O)o1 [Compound 5],IC50,SARS-CoV-2 pseudovirus [12],> 2000 nM
same,IC100,[6],>10 µM
same,inhibition of SARS-CoV-2 mediated cell-to-cell fusion (in words),[7],only inhibited the SARS-CoV-2 mediated cell-to-cell fusion at the higher dose (4 μM)
same,activity against SARS-CoV pseudovirus (in words),SARS-CoV pseudovirus [13],poor activity
same,IC50,MERS-CoV pseudovirus [14],> 2000 nM
CCc1ccc(-c2ccc(/C=C3\SC(=S)N(CCc4ccccc4)C3=O)o2)cc1C(=O)O [Compound 6],IC100,[6],>10 µM
same,antiviral activity against SARS-CoV-2 pseudovirus (in words),SARS-CoV-2 pseudovirus [9],slightly lower antiviral activity
same,IC50,MERS-CoV pseudovirus [14],< 1000 nM
same,CC50,in vitro [11],40000 ± 6000 nM
O=C(O)c1cccc(-c2ccc(/C=C3\SC(=S)N(CCc4ccccc4)C3=O)o2)c1F [Compound 7],IC100,[6],5 µM
same,IC50,MERS-CoV pseudovirus [14],< 1000 nM
O=C(O)c1cc(-c2ccc(/C=C3\SC(=S)N(CCc4ccccc4)C3=O)o2)ccc1Br [Compound 8],IC100,[6],5 µM
same,antiviral activity against SARS-CoV-2 pseudovirus (in words),SARS-CoV-2 pseudovirus [9],excellent antiviral activity
same,IC50,MERS-CoV pseudovirus [14],< 1000 nM
Cc1c(C(=O)O)cncc1-c1ccc(/C=C2\SC(=S)N(CCc3ccccc3)C2=O)o1 [Compound 9],IC100,[6],2.5 µM
"O=C1C(=Cc2ccc(-c3ccc(Cl)cc3)o2)SC(=S)N1CCc1ccccc1 [Compound 10, 5-((5-(4-chlorophenyl)furan-2-yl)methylene)-3-phenethyl-2-thioxothiazolidin-4-one]",antiviral activity against SARS-CoV-2 pseudovirus (in words),SARS-CoV-2 pseudovirus [9],no antiviral potency at the highest dose tested
same,IC50,SARS-CoV-2 pseudovirus [9],> 2000 nM
NS(=O)(=O)c1ccc(-c2ccc(/C=C3\SC(=S)N(CCc4ccccc4)C3=O)o2)cc1 [Compound 11],IC50,MERS-CoV pseudovirus [4],13.2 ± 3.7 nM
same,CC50,in vitro [11],13300 ± 2000 nM
O=C1NC(=S)S/C1=C\c1ccc(-c2ccc(Cl)c(C(=O)O)c2)o1 [Compound 12],antiviral activity against SARS-CoV-2 pseudovirus (in words),SARS-CoV-2 pseudovirus [9],did not display any activity at the highest dose tested
CCN1C(=O)/C(=C/c2ccc(-c3cccc(C(=O)O)c3)o2)SC1=S [Compound 13],CC50,in vitro [11],74000 ± 3000 nM
same,CC50,in vitro [15],> 100000 nM
COCCN1C(=O)/C(=C/c2ccc(-c3ccc(Cl)c(C(=O)O)c3)o2)SC1=S [Compound 14],CC50,in vitro [11],81000 ± 1000 nM
same,CC50,in vitro [15],> 100000 nM
CN1C(=O)/C(=C/c2ccc(-c3cccc(C(=O)O)c3)o2)SC1=S [Compound 15],CC50,in vitro [11],53000 ± 8000 nM
same,CC50,in vitro [15],> 100000 nM
O=C1/C(=C/c2ccc(-c3ccccc3)o2)SC(=S)N1CCc1ccccc1 [Compound 16],CC50,in vitro [11],75000 ± 7000 nM
same,CC50,in vitro [15],40000 ± 2000 nM
C=CCN1C(=O)/C(=C/c2ccc(-c3cccc(C(=O)O)c3)o2)SC1=S [Compound 17],CC50,in vitro [11],> 100000 nM
same,CC50,in vitro [15],> 100000 nM
O=C(O)c1cc(-c2ccc(/C=C3\SC(=S)N(C4CCCCC4)C3=O)o2)ccc1Cl [Compound 18],IC50,MERS-CoV pseudovirus [4],10.5 ± 0.9 nM
same,antiviral activity against SARS-CoV-2 pseudovirus (in words),SARS-CoV-2 pseudovirus [9],excellent antiviral activity; also recorded: low nM IC50
same,CC50,in vitro [11],> 100000 nM
same,CC50,in vitro [15],> 100000 nM
same,CC50,in vitro [16],> 100000 nM
C=CCN1C(=O)/C(=C/c2ccc(-c3cc(C(=O)O)cc(C(=O)O)c3)o2)SC1=S [Compound 19],CC50,in vitro [11],> 100000 nM
same,CC50,in vitro [15],> 100000 nM
C=CCN1C(=O)/C(=C/c2ccc(-c3cccc(C(=O)O)c3C)o2)SC1=S [Compound 20],IC50,MERS-CoV pseudovirus [4],340 ± 112 nM
same,CC50,in vitro [11],> 100000 nM
same,CC50,in vitro [15],> 100000 nM
same,CC50,in vitro [16],84000 ± 4000 nM
O=C1NC(=S)S/C1=C\c1ccc(-c2ccc(C(=O)O)c(Cl)c2)o1 [Compound 21],CC50,in vitro [11],> 100000 nM
same,CC50,in vitro [15],> 100000 nM
Cc1ccc(-c2ccc(/C=C3\SC(=S)N(CC(C)C)C3=O)o2)cc1C(=O)O [Compound 22],CC50,in vitro [11],68000 ± 4000 nM
same,CC50,in vitro [15],70000 ± 4000 nM
C#CCN1C(=O)/C(=C/c2ccc(-c3ccc(Cl)c(C(=O)O)c3)o2)SC1=S [Compound 23],antiviral activity against SARS-CoV-2 pseudovirus (in words),SARS-CoV-2 pseudovirus [9],did not display any activity at the highest dose tested
CCN1C(=O)/C(=C/c2ccc(-c3ccc(Cl)c(C(=O)O)c3)o2)SC1=S [Compound 24],IC50,MERS-CoV pseudovirus [4],88 ± 13 nM
same,CC50,in vitro [11],78000 ± 3000 nM
same,CC50,in vitro [15],> 100000 nM
same,CC50,in vitro [16],~100000 nM
O=C(O)c1cccc(-c2ccc(/C=C3\SC(=S)N(C4CCCCC4)C3=O)o2)c1 [Compound 25],IC50,MERS-CoV pseudovirus [4],247 ± 47 nM
same,antiviral activity against SARS-CoV-2 pseudovirus (in words),SARS-CoV-2 pseudovirus [9],displayed antiviral potency
same,CC50,in vitro [11],> 100000 nM
same,CC50,in vitro [15],> 100000 nM
same,CC50,in vitro [16],> 100000 nM
N=C1NC(=O)/C(=C/c2ccc(-c3ccc(Cl)c(C(=O)O)c3)o2)S1 [Compound 26],CC50,in vitro [11],> 100000 nM
CN1C(=O)/C(=C/c2ccc(-c3cccc(C(=O)O)c3)o2)SC1=S [Compound 27],IC50,MERS-CoV pseudovirus [4],96 ± 14 nM
same,CC50,in vitro [16],> 100000 nM
O=C1NC(=S)S/C1=C\c1ccc(-c2ccc(C(=O)O)cc2)o1 [Compound 28],antiviral activity against SARS-CoV-2 pseudovirus (in words),SARS-CoV-2 pseudovirus [9],loses the inhibitory activity; also recorded: showed no inhibition
CC(C)NCC(O)COc1cccc2ccccc12 (centres unmarked) [Propranolol],Papp,in vitro [17],19.7 ×10⁻⁶ cm/s
"C[C@]12CC[C@H]3[C@@H](CCC4=CC(=O)CC[C@@]43C)[C@@H]1CC[C@@H]2O [Testosterone, reference compound]",half-life,[18],0.188 h
CC(=O)CC(c1ccccc1)c1c(O)c2ccccc2oc1=O (centres unmarked) [Warfarin],fraction unbound,in vitro [19],0.018
